Reference: patent US20210046124A1, “HUMAN FUNCTIONAL CORNEAL ENDOTHELIAL CELL AND APPLICATION THEREOF” (KYOTO PREFECTURAL PUBLIC UNIVERSITY CORPORATION, priority 2016, published 2021)
Where “and” joins values, the source holds several entries; their conditions need not be identical. Equal entries are not always repeated. Entries after “also recorded” stand apart in the source; their conditions may differ. Structures can show the parent of a compound that is named as a salt.

Columns and labels:
Type in all cases: cell-based, human
[1] = test system: cultured HCECs; assay: Flow cytometry (FACS) of surface CD markers CD44, CD166, CD24, CD26, CD105 of cultured HCECs; E-ratio; details: for effect on the E-ratio: presence of the agent during culture
Excerpt: FIG. 68 is a diagram showing the method to estimate the content of effector (E-ratio) in a cultured cell population by FACS analysis. The gate is set as followings in measurements using PE-Cy7-labeled anti-human CD44 antibodies (BD Biosciences) and setting the Area Scaling Factor of Blue laser of FACS Canto II to 0.75 and voltage of PE-Cy7 to 495. First, fractions A, B, C, and D are set in the dot plot (top row left) where the X axis is CD24 and the Y axis is CD166. At this time, fraction A is CD24 negative and CD166 positive, fraction B is CD24 positive and CD166 positive, fraction C is CD24 negative and CD166 negative, and fraction D is CD24 positive and CD166 negative. The proportion of fraction B when target cells for analysis are 100% is considered the content of non-intended cell C [CD24 positive cell]. […] Further, a separate dot plot where the X axis is CD44 and the Y axis is CD26 is created and fractions a′, b′, c′, and d′ are set as in the diagram on the top row right side. The proportion of fraction B when the target cells of analysis is 100% is the non-intended cell B [CD26 positive cell] content.
Method of calculating the E-ratio: Typically, fluorescence intensities differ depending on the type of fluorescence of a label or equipment setting. In a measurement under the following condition: PE-Cy7-labeled anti-human CD44 antibody (BD Biosciences) is used and Area Scaling Factor of Blue laser of FACS Canto II is set to 0.75 and the voltage of PE-Cy 7 is set to 495, gates are set as follows: First, fractions A, B, C, and D are set in a dot plot (FIG. 68, top row left side) with X axis as CD24 and Y axis as CD166. At this time, fraction A is CD24 negative and CD166 positive, fraction B is CD24 positive and CD166 positive, fraction C is CD24 negative and CD166 negative, and fraction D is CD24 positive and CD166 negative. The proportion of fraction B, when target cells for analysis is 100%, is considered the content of non-intended cell C [CD24 positive cell]. […] Further, a separate dot plot where the X axis is CD44 and the Y axis is CD26 is created and fractions a′, b′, c′, and d′ are set as in the diagram on the top row right side of FIG. 68. The proportion of fraction B, when the target cell of analysis is 100%, is the non-intended cell B [CD26 positive cell] content (see FIG. 68).
HCECs were collected from the culture dish by TrypLE Select treatment as described above and suspended at a concentration of 4×10^6 cells/mL in FACS buffer (PBS containing 1% BSA and 0.05% NaN3). An equal volume of antibody solution was added and incubated for 2 hours at 4.degrees. C. The antibody solutions comprised the following: FITC-conjugated anti-human CD26 mAb, PE-conjugated anti-human CD166 mAb, PerCP-Cy5.5 conjugated anti-human CD24 mAb, PE-Cy7-conjugated anti-human CD44 (all from BD Biosciences), and APC-conjugated anti-human CD105 (eBioscience, San Diego, Calif., USA). After washing with FACS buffer, the HCECs were analyzed with FACS Canto II (BD Biosciences).

[2] = test system: cHCECs; assay: Phase contrast microscopy: morphology, cell area distribution, cultured cell density
Excerpt: Phase contrast microscope images were taken by an inverted microscope system (CKX41, Olympus, Tokyo, Japan). For the cell area distribution analysis, the cHCECs were washed with PBS (−) three times and the phase contrast images were acquired by a BZ X-700 Microscope system (Keyence, Osaka, Japan). The cell area distributions were quantified by BZ-H3C Hybrid cell count software (Keyence).
Phase contrast images ware taken by an inverted microscope system (CKX41, Olympus, Tokyo, Japan). For the cell area distribution analysis, the cHCECs were washed with PBS (−) three times and phase contrast images were acquired by a BZ X700 Microscope system (Keyence, Osaka, Japan). The area distributions were quantified by BZ-H3C Hybrid cell count software (Keyence).

[3] = test system: HCECs; assay: Trichostatin A (TSA) treatment of HCECs; details: medium supplemented with 0.5 .micro.M Trichostatin A
Procedure: HCECs with treated with Trichostatin A as follows. The Descemet's membranes with the corneal endothelial cells were stripped from donor corneas and digested at 37.degrees. C. with 1 mg/mL collagenase A (Roche Applied Science, Penzberg, Germany) for 2 hours. The HCECs obtained from a single donor cornea were seeded in one well of a Type I collagen-coated 6-well cell culture plate (Corning Inc., Corning, N.Y., USA). The Trichostatin A-containing medium was prepared with Opti-MEM-I (Life Technologies Corp., Carlsbad, Calif., USA), 8% fetal bovine serum (FBS), 5 ng/mL epidermal growth factor (EGF; Life Technologies), 20 .micro.g/mL ascorbic acid (Sigma-Aldrich Corp.), 200 mg/L calcium chloride (Sigma-Aldrich Corp., St. Louis, Mo., USA), 0.08% chondroitin sulfate (Wako Pure Chemical Industries, Ltd., Osaka, Japan), 50 .micro.g/mL of gentamicin, and 0.5 .micro.M of Trichostatin A. The HCECs were cultured using the Trichostatin A-containing medium at 37.degrees. C. in a humidified atmosphere containing 5% CO2. The culture medium was changed twice a week. The HCECs were subcultured at ratios of 1:3 using 10× TrypLE Select (Life Technologies) for 12 minutes at 37.degrees. C. when they reached confluence. The cells were cultured for 30 days. The HCECs from the second passage were used for observation with a fluorescence microscope.

[4] = test system: cultured HCECs; assay: Centrifugation cell attachment assay: coated Descemet's membrane components and cell suspension vehicles; details: for minimum concentration necessary for the observed cell binding: coating concentration; for binding / distribution of cultured HCECs in coated wells: U-bottomed 96-well plates coated with the component, 200×g for 2 minutes, Opti-MEM
Procedure: Cell attachment to laminins, […], proteoglycans and glycoprotein was tested by the centrifugation cell attachment assay described previously (Friedlander et al., 1998. J. Cell Biol. 107: p 2329) with some modifications. Laminin-521, -511, -411, and -332 were purchased from Veritas (Tokyo, Japan). Perlecan, Agrin, Nidogen-1, TSP-1 and Fibulin 5 were purchased from R&D Systems (Minneapolis, Minn.). Type IV collagen was purchased from BD Biosciences (San Jose, Calif., USA).
Each well of a U-shaped 96-well Maxisorp plate (Nunc) was coated with 40 .micro.l of laminin, collagen, proteoglycan or glycoprotein solution overnight at 4 degrees Celsius. The wells were washed three times with PBS (−) and blocked with 1% BSA in 0.1 M NaHCO3 (pH 8.0) for 1 hour at room temperature. The cultured HCECs were suspended in Opti-MEM, Opeguard-MA (Senju Pharmaceutical, Osaka, Japan) or BSS-Plus (Alcon Laboratories, Fort Worth, Tex., USA) at a concentration of 1×10^5 cells/mL, and 0.1 mL of the cell suspension was added to each well and incubated for 10 minutes. The plate was then centrifuged at 200×g for 2 minutes. The bright-field Z stack images were captured by a BZ-9000 microscope (Keyence, Osaka, Japan) at 2× objective magnification and omnifocal images were created from these images using BZ-II Analyzer software. In accordance with the description by Friedlander et al (Friedlander et al., 1998. J. Cell Biol. 107: p 2329), the cells were centrifuged into a pellet at the bottom of the well on non-adhesive substrates. As the adhesiveness of the substrate increased, more cells bound to the substrates along the wall of the well. Bond to the substrate is detected in a circular area with a measurable diameter at the bottom or the well. On strongly adhesive substrates, cells were distributed more or less uniformly on the well (Grumet M, Flaccus A, and Margolis R U. J. Cell Biol. 1993; 120:815-824).
As a method for assessing the attachment ability of HCECs, this Example performed a centrifugation cell attachment assay [Friedlander et al., 1998. J. Cell Biol. 107: p 2329] with some modification (FIG. 36). The cultured HCECs were detached from culture dishes as described in (Materials and Methods) and cell suspension was prepared at a concentration of 1×10^5 cells/ml. 100 .micro.l of the cell suspension was added to each well of the U-bottomed 96-well plates coated with laminin-511, laminin-411, Type IV collagen or other components of Descemet's membrane listed in Table 6. The plate was incubated for 10 minutes at room temperature and then centrifuged at 200×g for 2 minutes. The attached cells were assessed under a BZ-9000 microscope system as described in (Materials and Methods).

[5] = addition of Y-27632 during the culture for 47 days

In the case of `C[C@@H](N)[C@H]1CC[C@H](C(=O)Nc2ccncc2)CC1` [Lot Y-27632, (R)-(+)-trans-(4-pyridyl)-4-(1-aminoethyl)-cyclohexanecarboxamide dihydrochloride monohydrate], the E-ratios ([1]; Y-27632 added every three days throughout the entire culture period, TGF-beta signaling not inhibited, seeding density higher than 400 cells/mm^2) is reported as ≥ 90%, the “improvement (E-ratio, increase in the proportion of intermediately differentiated corneal endothelial cells)” value ([1]; about 1 .micro.M) is reported as “very little improvement” and the “improvement (E-ratio, increase in the proportion of intermediately differentiated corneal endothelial cells)” value ([1]; about 5 .micro.M) is reported as “little”. The “improvement (E-ratio, increase in the proportion of intermediately differentiated corneal endothelial cells)” value ([1]; about 10 .micro.M or more) was “More of an effect”, the E-Ratio ([1]; addition of Y-27632 throughout 35 days of culture, 6th passage) was 52.3% and the “effect on the E-ratio” value [1] was “further improved the E-ratio”. For the same compound, the average cell area [2, 5] was 216 .micro.m^2 and the cultured cell density [2, 5] was 2582 cells/mm^2.
For `C[S+]([O-])c1ccc(-c2nc(-c3ccc(F)cc3)c(-c3ccncc3)[nH]2)cc1` (centres unmarked) [SB203580, 4-(4-fluorophenyl)-2-(4-methylsulfinylphenyl)-5-(4-pyridyl)-1H-imidazole], the “senescent form of cHCEC cultures” value ([2]; inhibitor added to the entire culture, cultures a5, a1, a2) was “did not have any senescent form at first glance”.
`CC(/C=C/C(=O)NO)=C\[C@@H](C)C(=O)c1ccc(N(C)C)cc1` [Trichostatin A] was tested, and the “effect on the E-ratio” value [1] was “improved the E-ratio” and the “differentiation into mature cHCECs” value [3] was “can be promoted to differentiate into mature cHCECs”.
“Agrin: purchased from R&D Systems, Descemet's membrane component” was tested, and the “minimum concentration necessary for the observed cell binding” value (“minimum concentration necessary” for short) [4] was 400 nM.
In the case of “Perlecan: purchased from R&D Systems, Descemet's membrane component”, the “minimum concentration necessary” value [4] is reported as 400 nM.
“TSP-1: purchased from R&D Systems, Descemet's membrane component” was tested, and the “minimum concentration necessary” value [4] was 400 nM.
With “laminin-332: laminin purchased from Veritas, coating protein” the “binding / distribution of cultured HCECs in coated wells” value (from here on “binding / distribution”) [4] was “formed a circular pellet”.
“laminin-411: laminin purchased from Veritas, coating protein” was tested, and the “binding / distribution” value [4] was “formed a circular pellet” and the “minimum concentration necessary” value [4] was 1.25 nM and 2.85 .micro.g/mL.
“laminin-511: laminin purchased from Veritas, coating protein” was tested, and the “binding / distribution” value [4] was “uniformly distributed; also recorded: concentration dependent manner” and the “minimum concentration necessary” value [4] was 4 pM and 3 ng/mL.
With “laminin-521: laminin purchased from Veritas, coating protein” the “binding / distribution” value [4] was “uniformly distributed; also recorded: concentration dependent manner”.
